According to patent publication US20210040062A1, “AZOLE-SUBSTITUTED PYRIDINE COMPOUND” (TAISHO PHARMACEUTICAL CO., LTD., priority 2016, published 2021):

Tests used:
[1] = target: T1, human CYP4A11 (Homo sapiens, UniProt Q02928); experiment: CYP4A11 inhibition test (Test Example 1); assay type: biochemical; details: Escherichia coli membrane fraction expressing human CYP4A11, 60 μM luciferine derivative, room temperature 60 minutes, luminescence
T1 construct: host or cells: Escherichia coli (membrane fraction)
T1 sequence (Q02928 5-519): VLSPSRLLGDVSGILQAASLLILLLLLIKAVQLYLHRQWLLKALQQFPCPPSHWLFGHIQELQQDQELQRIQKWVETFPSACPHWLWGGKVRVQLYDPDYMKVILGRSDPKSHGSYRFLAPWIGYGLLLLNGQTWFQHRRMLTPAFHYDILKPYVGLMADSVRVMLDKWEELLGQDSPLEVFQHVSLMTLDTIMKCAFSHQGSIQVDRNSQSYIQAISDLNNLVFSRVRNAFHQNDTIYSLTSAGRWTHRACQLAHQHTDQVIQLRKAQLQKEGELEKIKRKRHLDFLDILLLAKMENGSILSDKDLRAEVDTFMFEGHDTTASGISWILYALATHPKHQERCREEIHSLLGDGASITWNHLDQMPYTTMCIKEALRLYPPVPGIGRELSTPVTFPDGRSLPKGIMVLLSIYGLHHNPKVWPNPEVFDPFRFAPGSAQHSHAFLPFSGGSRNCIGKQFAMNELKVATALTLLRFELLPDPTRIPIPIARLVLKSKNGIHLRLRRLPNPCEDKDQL
Description: (§1) (1) Inhibition Test for Each Compound of the Present Invention Against 20-HETE Producing Enzymes (CYP4F2 and CYP4A11)
(§2) In the CYP4F2 inhibition test, the reaction solution containing each compound [final concentration of 50 mM, KPO4 (pH 7.4), 2.5 μM, luciferine derivative and 1 mM NADPH] was added to an Escherichia coli membrane fraction (100 μg/mL, protein) in which human CYP4F2 had been expressed. In the CYP4A11 inhibition test, the reaction solution containing each compound [final concentration of 100 mM, Tris-HCl (pH 7.5), 60 μM, luciferine derivative, 1.3 mM NADP^+, 3.3 mM Glucose 6-Phosphate, 3.3 mM MgCl2 and 0.4 U/mL Glucose 6-Phosphate dehydrogenase] was added to an Escherichia coli membrane fraction (100 μg/mL, protein) in which human CYP4A11 had been expressed. Following this, the membrane fraction was left to stand at room temperature for 60 minutes to perform an enzymatic reaction. After the reaction, a luciferine detection reagent was added, and the luminescence value was measured using a plate reader.
(§3) A: Luminescence value with addition of compound
(§4) B: Luminescence value without addition of compound and enzyme
(§5) C: Luminescence value without addition of compound

[2] = target: T2, human CYP4F2 (Homo sapiens, UniProt P78329); experiment: CYP4F2 inhibition test (Test Example 1); assay type: biochemical; details: Escherichia coli membrane fraction expressing human CYP4F2, 2.5 μM luciferine derivative, room temperature 60 minutes, luminescence
T2 construct: host or cells: Escherichia coli (membrane fraction)
T2 sequence (P78329 5-520): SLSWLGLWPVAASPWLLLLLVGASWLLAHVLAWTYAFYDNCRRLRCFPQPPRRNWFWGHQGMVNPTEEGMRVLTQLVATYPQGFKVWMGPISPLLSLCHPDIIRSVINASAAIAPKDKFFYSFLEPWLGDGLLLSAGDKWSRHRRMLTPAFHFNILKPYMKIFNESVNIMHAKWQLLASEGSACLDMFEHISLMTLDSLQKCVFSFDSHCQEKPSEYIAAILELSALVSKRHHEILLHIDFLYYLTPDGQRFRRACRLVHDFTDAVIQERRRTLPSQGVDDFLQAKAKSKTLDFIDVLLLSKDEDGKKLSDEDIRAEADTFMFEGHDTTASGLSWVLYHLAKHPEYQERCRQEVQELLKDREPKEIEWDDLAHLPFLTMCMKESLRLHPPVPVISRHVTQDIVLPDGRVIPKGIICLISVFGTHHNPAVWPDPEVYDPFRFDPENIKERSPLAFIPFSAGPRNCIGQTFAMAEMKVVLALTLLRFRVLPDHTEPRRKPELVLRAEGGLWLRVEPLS
Description: as §1, §2, §3, §4, §5

IC50 [1]	IC50 [2]	SMILES
600 nM	430 nM	O=C(N1CCC[C@@H](COc2ccc(-c3ccn[nH]3)nc2)C1)C(F)(F)C1(O)CCOCC1 [Example 3-10]
5300 nM	440 nM	O=C([C@H]1CC[C@@H](O)CC1)N1CCC(COc2ccc(-c3ccn[nH]3)nc2)CC1 [Example 2-7]
2600 nM	2000 nM	O=C([C@H]1CC[C@H](O)CC1)N1CCC[C@@H](COc2ccc(-c3ccn[nH]3)nc2)C1 [Example 3-2, (4-Hydroxycyclohexyl)-((3R)-3-{[6-(1H-pyrazol-5-yl)pyridin-3-yl]oxymethyl}piperidin-1-yl)methanone]
91 nM	43 nM	O=C(NCCC(=O)N1CCC[C@@H](COc2ccc(-c3ccn[nH]3)nc2)C1)C1CCC1 [Example 4-8]
270 nM	480 nM	CCCCNC(=O)CC(=O)N1CCC[C@@H](COc2ccc(-c3ccn[nH]3)nc2)C1 [Example 2-17]
1300 nM	370 nM	CC(=O)N1CCC(COc2ccc(-n3ccnn3)nc2)CC1 [Example 45-1, 1-(4-{[6-(Triazol-1-yl)pyridin-3-yl]oxymethyl}piperidin-1-yl)ethanone]
550 nM	120 nM	CC(=O)N1CCC(CCOc2ccc(-c3ccn[nH]3)nc2)CC1 [Example 4-1, 1-[4-(2-{[6-(1H-Pyrazol-5-yl)pyridin-3-yl]oxy}ethyl)piperidin-1-yl]ethan-1-one]
370 nM	93 nM	O=C(NCCC(=O)N1CCC[C@@H](COc2ccc(-c3ccn[nH]3)nc2)C1)C1CCOCC1 [Example 4-5]
120 nM	88 nM	CCc1cccc(COc2ccc(-c3ccn[nH]3)nc2)c1 [Reference Example 53-2, 5-[(3-Ethylphenyl)methoxy]-2-(1H-pyrazol-5-yl)pyridine]
64 nM	25 nM	COC(=O)N1CCC(CCOc2cnc(-c3ccn[nH]3)c(F)c2)CC1 [Example 24-6]
270 nM	440 nM	O=C(c1ccccc1)N1CCC[C@@H](COc2ccc(-c3ccn[nH]3)nc2)C1 [Example 3-5]
600 nM	3800 nM	O=S1(=O)CCC(COc2ccc(-c3cn[nH]c3)nc2)CC1 [Example 43-3]
2500 nM	230 nM	c1cc(-c2ccc(OCc3cncc(-n4nccn4)c3)cn2)[nH]n1 [Example 25-8]
190 nM	85 nM	CC(C)OC(=O)N1CCC(CCOc2ccc(-c3ccn[nH]3)nc2)CC1 [Example 1-29, Propan-2-yl 4-(2-{[6-(1H-pyrazol-5-yl)pyridin-3-yl]oxy}ethyl)piperidin-1-carboxylate]
260 nM	11 nM	O=S(=O)(CCCN1CCOCC1)c1cccc(COc2ccc(-c3ccn[nH]3)nc2)c1 [Example 14-10]
83 nM	54 nM	CCOC(=O)NCCC(=O)N1CCC[C@@H](COc2ccc(-c3ccn[nH]3)nc2)C1 [Example 1-33]
460 nM	15 nM	O=C(CC1CCCCC1)N1CCC[C@@H](COc2ccc(-c3ccn[nH]3)nc2)C1 [Example 3-32]
770 nM	45000 nM	NC(=O)C1(C(=O)N2CCC[C@@H](COc3ccc(-c4ccn[nH]4)nc3)C2)CC1 [Example 3-34]
660 nM	12 nM	COc1ccc(COc2ccc(-c3ccn[nH]3)nc2)cc1F [54-3]
560 nM	960 nM	CS(=O)(=O)N1CCC(CCOc2ccc(-c3ccn[nH]3)nc2)CC1 [Example 10-22]
2400 nM	3200 nM	O=C(Cn1ccccc1=O)N1CCC[C@@H](COc2ccc(-c3ccn[nH]3)nc2)C1 [Example 3-28]
550 nM	1800 nM	CS(=O)(=O)c1cccc(COc2ccc(-c3[nH]ncc3CO)nc2)c1 [Example 49-1, (5-{5-[(3-Methylsulfonylphenyl)methoxy]pyridin-2-yl}-1H-pyrazol-4-yl)methanol]

IC50 [1]	IC50 [2]	SMILES
230 nM	180 nM	CCCCNC(=O)NCC(=O)N1CCC[C@@H](COc2ccc(-c3ccn[nH]3)nc2)C1 [Example 3-41]
77 nM	17 nM	O=C(NCC(=O)N1CCC[C@@H](COc2ccc(-c3ccn[nH]3)nc2)C1)OCc1ccccc1 [Example 3-17]
220 nM	45 nM	CCCCS(=O)(=O)N1CCC(CCOc2ccc(-c3ccn[nH]3)nc2)CC1 [Example 10-23]
310 nM	4500 nM	CC(CO)(CO)C(=O)N1CCC[C@@H](COc2ccc(-c3ccn[nH]3)nc2)C1 [Example 4-4]
30 nM	23 nM	CCN(CC)S(=O)(=O)N1CCC[C@@H](COc2ccc(-c3ccn[nH]3)nc2)C1 [Example 11-3]
270 nM	210 nM	O=C(c1ccccc1)N1CCC(CCOc2ccc(-c3ccn[nH]3)nc2)CC1 [Example 4-3]
230 nM	95 nM	CC(C)(C)OC(=O)Nc1cccc(COc2ccc(-c3ccn[nH]3)nc2)c1 [Example 18-7]
290 nM	23 nM	CC(C)(C)OC(=O)N1CC(C(=O)N2CCC[C@@H](COc3ccc(-c4ccn[nH]4)nc3)C2)C1 [Example 3-46]
2900 nM	99 nM	O=S(=O)(CCCN1CCCC1)c1cccc(COc2ccc(-c3ccn[nH]3)nc2)c1 [Example 14-9]
1100 nM	20 nM	COc1ccc(COc2ccc(-c3ccn[nH]3)nc2)cc1S(C)(=O)=O [Example 25-10]
1100 nM	94 nM	O=C(C1CC(F)(F)C1)N1CCC(COc2ccc(-c3ccn[nH]3)nc2)CC1 [Example 2-4]
31 nM	220 nM	CS(=O)(=O)c1cccc(COc2ccc(-n3cncn3)nc2)c1 [Example 45-4]
850 nM	450 nM	CC(=O)N1CCC(COc2cnc(-c3[nH]ncc3C)c(F)c2)CC1 [Example 24-2]
120 nM	35 nM	CC(=O)N1CCC(COc2cnc(-c3ccn[nH]3)cc2C)CC1 [Example 24-3]
76 nM	85 nM	O=C(CS(=O)(=O)c1cccc(COc2ccc(-c3ccn[nH]3)nc2)c1)N1CCC1 [Example 18-4]
160 nM	52 nM	FC(F)(F)Oc1cccc(COc2ccc(-c3ccn[nH]3)nc2)c1 [Example 25-23]
340 nM	88 nM	Cc1cccc(COc2ccc(-c3ccn[nH]3)nc2)c1 [Reference Example 54-1, 5-[(3-Methylphenyl)methoxy]-2-(1H-pyrazol-5-yl)pyridine]
8100 nM	64 nM	CC(=O)N[C@H]1C[C@H](COc2ccc(-c3ccn[nH]3)nc2)C1 [Example 16-1-2, N-[trans-3-({[6-(1H-Pyrazol-5-yl)pyridin-3-yl]oxy}methyl)cyclobutyl]acetamide]
540 nM	23 nM	C[C@H](CNC(=O)OC(C)(C)C)C(=O)N1CCC[C@@H](COc2ccc(-c3ccn[nH]3)nc2)C1 [Example 2-12]
310 nM	700 nM	O=C(c1cc(CO)ccn1)N1CCC[C@@H](COc2ccc(-c3ccn[nH]3)nc2)C1 [Example 3-27]
180 nM	6.2 nM	CCOC(=O)N[C@H]1C[C@H](C(=O)N2CCC[C@@H](COc3ccc(-c4ccn[nH]4)nc3)C2)C1 [Example 1-38]
1200 nM	9200 nM	NC(=O)COc1ccccc1C(=O)N1CCC[C@@H](COc2ccc(-c3ccn[nH]3)nc2)C1 [Example 3-26]
